These results are taken from article PMC8434007 (Molecules, 2021).

Counter-ions that a name gives are not always drawn. Like-named read-outs stand apart in the source and are kept apart here.

Common to all, as to test: biochemical
Experiment [1] addresses T1, horse serum butyrylcholinesterase (eqBChE) (Equus caballus, UniProt P81908).
T1 construct: AChE (from electric eel) and BChE (from horse serum); from tissue; host or cells: horse serum
Particulars: for inhibition at 10 µM: read-out: inhibition percentage ± SEM, BChE.

For experiment [2], the target named is T2, bovine thrombin (Bos taurus, UniProt P00735).
T2 construct: purchased Sigma-Aldrich (Milan, Italy)
The following applies: for inhibition at 50 µM: read-out: inhibition percentage ± SEM, thr.

Experiment [3] deals with T3, electric eel acetylcholinesterase (eeAChE) (Electrophorus electricus, UniProt O42275).
T3 construct: AChE (from electric eel) and BChE (from horse serum); from tissue
T3 sequence (O42275 24-633): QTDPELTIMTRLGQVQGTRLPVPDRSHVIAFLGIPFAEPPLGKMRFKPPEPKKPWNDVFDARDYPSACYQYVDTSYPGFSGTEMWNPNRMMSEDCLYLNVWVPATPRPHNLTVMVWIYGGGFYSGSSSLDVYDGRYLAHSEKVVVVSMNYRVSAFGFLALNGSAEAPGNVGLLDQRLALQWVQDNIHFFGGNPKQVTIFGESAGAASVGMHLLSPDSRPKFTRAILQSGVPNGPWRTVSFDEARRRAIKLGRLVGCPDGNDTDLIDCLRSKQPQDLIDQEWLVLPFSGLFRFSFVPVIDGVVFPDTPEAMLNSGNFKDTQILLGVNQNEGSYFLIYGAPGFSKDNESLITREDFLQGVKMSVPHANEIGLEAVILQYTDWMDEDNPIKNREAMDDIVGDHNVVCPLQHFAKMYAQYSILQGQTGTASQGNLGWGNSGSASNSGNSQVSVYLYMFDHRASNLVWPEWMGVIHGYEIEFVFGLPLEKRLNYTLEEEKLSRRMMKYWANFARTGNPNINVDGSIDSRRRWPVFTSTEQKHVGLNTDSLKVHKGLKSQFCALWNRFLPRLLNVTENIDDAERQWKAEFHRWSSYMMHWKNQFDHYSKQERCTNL
Format: biochemical. The following applies: for inhibition at 10 µM: read-out: inhibition percentage ± SEM, AChE.

For experiment [4], the target named is T4, human recombinant fXa (Homo sapiens, UniProt P00742).
T4 construct: purchased Chromogenix AB-Instrumentation Laboratories (Milan, Italy)
T4 sequence (P00742 235-488 limits assumed): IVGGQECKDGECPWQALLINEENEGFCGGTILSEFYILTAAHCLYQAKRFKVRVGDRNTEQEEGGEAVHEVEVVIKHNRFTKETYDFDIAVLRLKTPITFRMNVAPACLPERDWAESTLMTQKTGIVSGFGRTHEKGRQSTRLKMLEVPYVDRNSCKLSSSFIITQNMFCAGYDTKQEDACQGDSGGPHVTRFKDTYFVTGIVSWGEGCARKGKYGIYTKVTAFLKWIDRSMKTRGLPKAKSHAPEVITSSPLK
T4 sequence (P00742 41-179 partner limits assumed): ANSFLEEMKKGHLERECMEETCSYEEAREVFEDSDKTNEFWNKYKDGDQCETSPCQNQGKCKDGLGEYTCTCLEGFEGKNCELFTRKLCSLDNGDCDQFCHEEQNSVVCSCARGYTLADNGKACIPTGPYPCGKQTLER
The following applies: for inhibition at 50 µM: read-out: inhibition percentage ± SEM, fXa.

[5] abbreviates: horse serum BChE, Cheng–Prousoff from IC50, read-out: Ki BChE.
The mark [6] stands for this setting: bovine serum thrombin, Cheng–Prousoff from IC50, pH 8, read-out: Ki thr.
Setting [7] is: electric eel AChE, Cheng–Prousoff from IC50, read-out: Ki AChE.
Setting [8] is: human recombinant fXa, Cheng–Prousoff from IC50, pH 8, read-out: Ki fXa.

A word on the inhibition: it is the drop in the measured response relative to a control, in per cent.

T1 sequence (P81908 whole entry): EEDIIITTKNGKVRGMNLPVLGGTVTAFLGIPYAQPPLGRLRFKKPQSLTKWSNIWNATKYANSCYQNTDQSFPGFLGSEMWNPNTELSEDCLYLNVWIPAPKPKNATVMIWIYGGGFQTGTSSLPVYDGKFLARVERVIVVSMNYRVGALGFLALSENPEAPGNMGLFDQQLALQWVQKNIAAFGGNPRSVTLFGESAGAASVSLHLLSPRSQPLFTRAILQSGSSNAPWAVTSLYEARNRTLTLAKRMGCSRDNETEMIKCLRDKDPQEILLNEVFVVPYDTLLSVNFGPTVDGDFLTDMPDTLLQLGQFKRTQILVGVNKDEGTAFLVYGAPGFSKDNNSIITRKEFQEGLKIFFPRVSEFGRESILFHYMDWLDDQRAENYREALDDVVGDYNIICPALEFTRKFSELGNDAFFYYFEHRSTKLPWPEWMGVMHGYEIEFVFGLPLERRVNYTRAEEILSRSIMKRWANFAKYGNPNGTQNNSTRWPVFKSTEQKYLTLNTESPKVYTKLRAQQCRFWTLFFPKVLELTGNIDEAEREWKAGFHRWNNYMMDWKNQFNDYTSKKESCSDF

For `O=C(Nc1cccc(OCCc2ccc(F)cc2)c1)C1CCN(c2ccncc2)CC1` [Compound 7], the Ki was determined as 5630 nM in experiment [1] (setting [5]), 4460 nM in experiment [2] (setting [6]), 650 nM in experiment [3] (setting [7]) and 133 nM in experiment [4] (setting [8]).
The corresponding values for `O=C(NCc1ccc(F)cc1)c1cccc(NC(=O)C2CCN(c3ccncc3)CC2)c1` [Compound 10, N-(3-(4-fluorobenzylcarbamoyl)phenyl)-1-(pyridin-4-yl)piperidine-4-carboxamide] are 370 nM, 10600 nM, 255 nM and 2400 nM.
As for `CC(C)N1CCC(C(=O)Nc2cccc(OCc3ccc(-c4ccc(Cl)cc4)cc3)c2)CC1` [Compound 22], the inhibition at 10 µM in experiment [1] (horse serum BChE) was found to be 35%. In experiment [2] (bovine serum thrombin), the inhibition at 50 µM was 5%. Besides, the Ki stood at 3330 nM in experiment [3] (setting [7]) and 165 nM in experiment [4] (setting [8]).
Turning to `CC(C)N1CCC(C(=O)Nc2ccccc2OCc2ccc(Cl)cc2)CC1` [Compound 20, N-(2-(4-chlorobenzyloxy)phenyl)-1-isopropylpiperidine-4-carboxamide], the Ki stood at 105 nM in experiment [1] (setting [5]) and 484 nM in experiment [4] (setting [8]). Also, in experiment [2] (bovine serum thrombin), the inhibition at 50 µM came to 20%. Also, the inhibition at 10 µM in experiment [3] amounted to 11%.
In the case of `O=C(Nc1cccc(OCc2ccc(F)cc2)c1)C1CCN(C2CCCC2)CC1` [Compound 15, N-(3-(4-fluorobenzyloxy)phenyl)-1-cyclopentylpiperidine-4-carboxamide], the Ki in experiment [1] (setting [5]) stood at 115 nM; in experiment [2] (setting [6]) it was 30000 nM. For the same molecule, in experiment [3], the inhibition at 10 µM worked out at 27%. Also, the inhibition at 50 µM in experiment [4] (human recombinant fXa) is 40%.
As for `N=C(N)N1CCC(C(=O)Nc2ccccc2OCc2ccc(Cl)cc2)CC1` [Compound 21, N-(2-(4-Chlorobenzyloxy)phenyl)-1-amidinopiperidine-4-carboxamide hydrochloride], the Ki in experiment [1] (setting [5]) is 8200 nM; in experiment [2] (setting [6]), 25900 nM; in experiment [4] (setting [8]) it was 60600 nM. The inhibition at 10 µM in experiment [3] was found to be 38%.
Turning to `O=C(Nc1cccc(COc2ccc(F)cc2)c1)C1CCN(c2ccncc2)CC1` [Compound 3], the Ki in experiment [1] (setting [5]) amounted to 2600 nM; in experiment [2] (setting [6]), 26800 nM; in experiment [3] (setting [7]), 165 nM; in experiment [4] (setting [8]), 774 nM.
As to `O=C(Nc1ccc(OCc2cccc(F)c2)cc1)C1CCN(c2ccncc2)CC1` [Compound 4], the Ki is 425 nM in experiment [1] (setting [5]), 6700 nM in experiment [2] (setting [6]), 3880 nM in experiment [3] (setting [7]) and 25100 nM in experiment [4] (setting [8]).
With `O=C(Nc1cccc(CCc2ccc(F)cc2)c1)C1CCN(c2ccncc2)CC1` [Compound 8], the Ki worked out at 8200 nM in experiment [1] (setting [5]), 3720 nM in experiment [2] (setting [6]), 495 nM in experiment [3] (setting [7]) and 37700 nM in experiment [4] (setting [8]).
`CC(C)N1CCC(C(=O)Nc2ccccc2OCc2ccc(F)cc2)CC1` [Compound 18, N-(2-(4-fluorobenzyloxy)phenyl)-1-isopropylpiperidine-4-carboxamide]: the Ki in experiment [1] (setting [5]) worked out at 378 nM; in experiment [2] (setting [6]), 5350 nM; in experiment [4] (setting [8]), 10500 nM. Further, the inhibition at 10 µM in experiment [3] turned out to be 15%.
In the case of `CC(C)N1CCC(C(=O)Nc2ccccc2OCc2cc(-c3ccc(Cl)cc3)on2)CC1` [Compound 26], the Ki in experiment [1] (setting [5]) came to 1110 nM; in experiment [2] (setting [6]), 13700 nM; in experiment [3] (setting [7]), 11500 nM; in experiment [4] (setting [8]), 7 nM.
As for `O=C(Nc1cccc(OCc2cccc(F)c2)c1)C1CCN(c2ccncc2)CC1` [Compound 1], the Ki in experiment [1] (setting [5]) is 6950 nM; in experiment [2] (setting [6]), 6 nM; in experiment [3] (setting [7]), 58 nM; in experiment [3] (read-out: Ki eeAChE from replot of Lineweaver–Burk slopes versus inhibitor concentration) it was 56 nM; in experiment [4] (setting [8]) it was 5600 nM. Moreover, the “mechanism of eeAChE inhibition” value in experiment [3] (Lineweaver–Burk, changed both Vmax and KM) is recorded as “noncompetitive/mixed-type inhibition”. Besides, in experiment [3] (thr vs AChE inhibition, one unit higher than predicted by docking), the “experimental ΔΔG score” value is “about 1.3 kcal/mol”.
On to `O=C(Nc1ccc(F)cc1)Nc1cccc(NC(=O)C2CCN(c3ccncc3)CC2)c1` [Compound 12, 1-(3-(1-(pyridin-4-yl)piperidine-4-carboxamido)phenyl)-3-(4-fluorophenyl)urea], for which, in experiment [1] (horse serum BChE), the inhibition at 10 µM was 15%. Further, the Ki was determined as 26700 nM in experiment [2] (setting [6]), 735 nM in experiment [3] (setting [7]) and 16500 nM in experiment [4] (setting [8]).
Turning to `[H]/N=C(/N)c1ccc(NCc2nc3cc(C(=O)N(CCC(=O)O)c4ccccn4)ccc3n2C)cc1` [dabigatran, reference compound], the inhibition at 10 µM in experiment [1] (horse serum BChE) came out at 36%. This molecule also yielded a Ki in experiment [2] of 4.2 nM.
Regarding `O=C(Nc1ccc(F)cc1)c1cccc(NC(=O)C2CCN(c3ccncc3)CC2)c1` [Compound 9, N-(3-(4-fluorophenylcarbamoyl)phenyl)-1-(pyridin-4-yl)piperidine-4-carboxamide], the Ki amounted to 8250 nM in experiment [1] (setting [5]), 4470 nM in experiment [2] (setting [6]), 270 nM in experiment [3] (setting [7]) and 4040 nM in experiment [4] (setting [8]).
For `O=C(Nc1cccc(OCCc2cccc(F)c2)c1)C1CCN(c2ccncc2)CC1` [Compound 6], the Ki in experiment [1] (setting [5]) is 1750 nM; in experiment [2] (setting [6]) it was 2140 nM; in experiment [3] (setting [7]), 369 nM; in experiment [4] (setting [8]), 488 nM.
The corresponding values for `N=C(N)N1CCC(C(=O)Nc2cccc(OCc3cc(-c4ccc(Cl)cc4)on3)c2)CC1` [Compound 25] are 7670 nM, 630 nM, 11000 nM and 26 nM.
Turning to `N=C(N)N1CCC(C(=O)Nc2cccc(OCc3ccc(F)cc3)c2)CC1` [Compound 13], the Ki is 260 nM in experiment [1] (setting [5]), 20000 nM in experiment [2] (setting [6]), 10000 nM in experiment [3] (setting [7]) and 33000 nM in experiment [4] (setting [8]).
`O=C(Nc1cccc(OCc2ccc(F)cc2)c1)C1CCN(c2ccncc2)CC1` [Compound 2]: the Ki in experiment [1] (setting [5]) amounted to 1210 nM; in experiment [2] (setting [6]), 210 nM; in experiment [3] (setting [7]), 240 nM; in experiment [4] (setting [8]), 1100 nM.
For the molecule `N=C(N)N1CCC(C(=O)Nc2cccc(OCc3ccc(-c4ccc(Cl)cc4)cc3)c2)CC1` [Compound 23], the Ki in experiment [1] (setting [5]) came out at 90 nM; in experiment [2] (setting [6]) it was 2040 nM; in experiment [3] (setting [7]), 5800 nM; in experiment [4] (human fXa, read-out: Ki fXa), 31 ± 1 nM.
As to `O=C(Nc1ccccc1OCc1ccc(F)cc1)C1CCN(C2CCCC2)CC1` [Compound 19, N-(2-(4-fluorobenzyloxy)phenyl)-1-cyclopentylpiperidine-4-carboxamide], in experiment [1] (setting [5]), the Ki is 215 nM. The inhibition at 50 µM in experiment [2] (bovine serum thrombin) came to 12%; in experiment [4] (human recombinant fXa), 28%. Besides, the inhibition at 10 µM in experiment [3] came to 35%.
With `N=C(N)N1CCC(C(=O)Nc2cccc(OCc3cc(-c4cccc(Cl)c4)on3)c2)CC1` [Compound 29], the Ki worked out at 1120 nM in experiment [1] (setting [5]), 15300 nM in experiment [2] (setting [6]), 10000 nM in experiment [3] (setting [7]) and 388 nM in experiment [4] (setting [8]).
Consider `CC(C)N1CCC(C(=O)Nc2ccc(OCc3ccc(F)cc3)cc2)CC1` [Compound 16, N-(4-(4-fluorobenzyloxy)phenyl)-1-isopropylpiperidine-4-carboxamide], for which the Ki is 2360 nM in experiment [1] (setting [5]) and 6250 nM in experiment [3] (setting [7]). Further, the inhibition at 50 µM is 11% in experiment [2] (bovine serum thrombin) and 5% in experiment [4] (human recombinant fXa).
`CC(C)N1CCC(C(=O)Nc2cccc(OCc3cc(-c4ccc(Cl)cc4)on3)c2)CC1` [Compound 24]: the Ki came out at 3060 nM in experiment [1] (setting [5]), 6300 nM in experiment [3] (setting [7]) and 218 nM in experiment [4] (setting [8]). Also, the inhibition at 50 µM in experiment [2] (bovine serum thrombin) was 15%.
Consider `CC(C)N1CCC(C(=O)Nc2cccc(OCc3ccc(F)cc3)c2)CC1` [Compound 14, N-(3-(4-fluorobenzyloxy)phenyl)-1-isopropylpiperidine-4-carboxamide], for which the Ki in experiment [1] (eqBChE 0.18 U/mL, butyrylthiocholine iodide 50-300 µM, inhibitor 0-1 µM, x-axis intercept, read-out: Ki eqBChE from replot of Lineweaver–Burk slopes versus [I]) worked out at 104 nM; in experiment [1] (setting [5]) it was 130 nM; in experiment [3] (setting [7]), 15500 nM. The inhibition at 50 µM is 5% in experiment [2] (bovine serum thrombin) and 28% in experiment [4] (human recombinant fXa).
For the molecule `CC(C)N1CCC(C(=O)Nc2cccc(OCc3cc(-c4ccc(Cl)s4)on3)c2)CC1` [Compound 30], the Ki in experiment [1] (setting [5]) turned out to be 2130 nM; in experiment [2] (setting [6]) it was 16000 nM; in experiment [3] (setting [7]), 5100 nM; in experiment [4] (setting [8]), 90 nM.
With `N=C(N)N1CCC(C(=O)Nc2ccccc2OCc2cc(-c3ccc(Cl)cc3)on2)CC1` [Compound 27], the Ki in experiment [1] (setting [5]) turned out to be 10000 nM; in experiment [2] (setting [6]) it was 21200 nM; in experiment [4] (setting [8]) it was 60 nM. Besides, the inhibition at 10 µM in experiment [3] was found to be 16%.
As for `O=C(Nc1ccc(OCc2ccc(F)cc2)cc1)C1CCN(C2CCCC2)CC1` [Compound 17, N-(4-(4-fluorobenzyloxy)phenyl)-1-cyclopentylpiperidine-4-carboxamide], the figures for the Ki in experiment [1] (setting [5]) and in experiment [3] (setting [7]) were 255 nM and 3520 nM, respectively. Further, the inhibition at 50 µM in experiment [2] (bovine serum thrombin) was found to be 25%; in experiment [4] (human recombinant fXa), 28%.
In the case of “N-(2-(3-chlorobenzyloxy)phenyl)-1-isopropylpiperidine-4-carboxamide [Compound 28]”, the Ki in experiment [1] (setting [5]) came out at 4100 nM; in experiment [2] (setting [6]), 23000 nM; in experiment [3] (setting [7]), 7000 nM; in experiment [4] (setting [8]), 867 nM.
On to `O=C(Nc1ccccc1OCc1cccc(F)c1)C1CCN(c2ccncc2)CC1` [Compound 5], for which the Ki in experiment [1] (setting [5]) stood at 655 nM. In addition, the inhibition at 50 µM in experiment [2] (bovine serum thrombin) was 10%; in experiment [4] (human recombinant fXa), 2%. Also, the inhibition at 10 µM in experiment [3] was found to be 12%.
Take `N=C(N)N1CCC(C(=O)Nc2cccc(OCc3cc(-c4ccc(Cl)s4)on3)c2)CC1` [Compound 31]: the Ki in experiment [1] (setting [5]) came out at 1620 nM; in experiment [4], 15 nM. Also, the inhibition at 10 µM in experiment [3] was determined as 31%.
